The text below walks through data of ChEMBL document CHEMBL5137068, “Discovery of Hexahydrofuro[3,2-b]furans as New Kinase-Selective and Orally Bioavailable JAK3 Inhibitors for the Treatment of Leukemia Harboring a JAK3 Activating Mutant” (J Med Chem, 2022).

Series [1] has as its target T1, Tyrosine-protein kinase JAK1 (Homo sapiens, UniProt P23458). Nature of the series: Inhibition of human JAK1 at 0.5 uM relative to control.
The subject of series [2] is U-937. As to the kind of experiment: Induction of cell cycle arrest in human U-937 cells assessed as accumulation at S phase at 11 nM measured after 24 hrs by propidium iodide staining based flow cytometric analysis (reference value: 15.35%). Format: functional. A general note: In flow cytometry, cells or beads pass a laser one at a time.
In series [3] the target is Epidermal growth factor receptor (Homo sapiens) (UniProt P00533). As to the kind of experiment: Inhibition of EGFR (unknown origin) at 0.5 uM relative to control.
Series [4] deals with T2, Tyrosine-protein kinase JAK3 (Homo sapiens) (UniProt P52333).
T2 sequence (whole entry): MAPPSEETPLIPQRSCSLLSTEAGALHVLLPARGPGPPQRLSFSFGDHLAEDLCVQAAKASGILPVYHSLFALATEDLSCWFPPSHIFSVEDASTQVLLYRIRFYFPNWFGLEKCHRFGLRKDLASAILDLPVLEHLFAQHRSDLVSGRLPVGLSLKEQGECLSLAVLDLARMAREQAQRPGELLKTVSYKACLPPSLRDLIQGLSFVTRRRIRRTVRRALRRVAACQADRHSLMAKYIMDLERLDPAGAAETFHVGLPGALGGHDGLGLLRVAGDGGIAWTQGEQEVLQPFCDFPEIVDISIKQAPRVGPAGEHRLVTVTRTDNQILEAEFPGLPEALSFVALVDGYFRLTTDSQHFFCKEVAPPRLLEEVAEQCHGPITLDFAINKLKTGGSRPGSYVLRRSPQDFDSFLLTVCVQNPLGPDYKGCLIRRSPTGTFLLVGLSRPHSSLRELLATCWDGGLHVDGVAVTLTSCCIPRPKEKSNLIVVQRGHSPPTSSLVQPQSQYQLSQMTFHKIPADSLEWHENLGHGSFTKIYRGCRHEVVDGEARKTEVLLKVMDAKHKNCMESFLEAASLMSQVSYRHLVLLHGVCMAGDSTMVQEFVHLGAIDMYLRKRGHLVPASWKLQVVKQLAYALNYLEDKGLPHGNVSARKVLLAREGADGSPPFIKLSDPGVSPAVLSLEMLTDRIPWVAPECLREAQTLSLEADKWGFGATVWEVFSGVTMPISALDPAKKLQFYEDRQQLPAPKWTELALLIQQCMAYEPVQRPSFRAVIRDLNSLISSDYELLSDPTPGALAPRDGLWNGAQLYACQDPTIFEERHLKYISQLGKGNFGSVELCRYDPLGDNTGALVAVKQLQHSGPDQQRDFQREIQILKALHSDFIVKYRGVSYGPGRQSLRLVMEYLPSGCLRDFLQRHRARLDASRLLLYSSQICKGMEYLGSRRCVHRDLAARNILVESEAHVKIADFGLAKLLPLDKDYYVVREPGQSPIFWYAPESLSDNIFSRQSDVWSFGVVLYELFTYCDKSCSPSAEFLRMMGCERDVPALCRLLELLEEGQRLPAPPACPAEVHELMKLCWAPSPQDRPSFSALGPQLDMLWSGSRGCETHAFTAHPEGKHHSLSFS
As to the kind of experiment: Irreversible inhibition of JAK3 in human U-937 cells assessed as decrease in P-JAK3 phosphorylation at 200 uM pretreated for 8 hrs followed by compound washout by immunoblotting analysis. Format: cell-based. In general terms: Immunoblotting shows a protein as a band on a membrane.

Series [5] has as its system U-937. Nature of the series: Induction of cell cycle arrest in human U-937 cells assessed as accumulation at G2/M phase at 33 nM measured after 24 hrs by propidium iodide staining based flow cytometric analysis (reference value: 21.41%). Format: functional.
Series [6] addresses Receptor tyrosine-protein kinase erbB-2 (Homo sapiens) (UniProt P04626). Nature of the series: Inhibition of HER2 (unknown origin) at 0.5 uM relative to control.
For series [7], the target named is T3, Tyrosine-protein kinase JAK3 (Homo sapiens, UniProt P52333).
T3 sequence (P52333 whole entry): T2 sequence (whole entry)
Description: Inhibition of GST tagged recombinant human JAK3 expressed in baculovirus infection system by FRET assay

Series [8] has as its target T2, Tyrosine-protein kinase JAK3 (Homo sapiens). Nature of the series: Inhibition of human JAK3 at 0.5 uM assessed as competition rate relative to control.
Series [9] is described as follows: Cmax in 12 hr fasted SPF Sprague-Dawley rat at 15 mg/kg, po upon 2 hrs fasting post-administration measured upto 24 hrs. Format: ADME, organism-based. Details: time < 24 hrs, dose 15 mg/kg, route po. The conditions noted are these: in vivo.
The subject of another series is BaF3. As to the kind of experiment: cells. To be noted: Mus musculus, BaF3, 72 h.
Series [10] has as its target T4, Signal transducer and activator of transcription 5A (Homo sapiens) (UniProt P42229).
T4 sequence (whole entry): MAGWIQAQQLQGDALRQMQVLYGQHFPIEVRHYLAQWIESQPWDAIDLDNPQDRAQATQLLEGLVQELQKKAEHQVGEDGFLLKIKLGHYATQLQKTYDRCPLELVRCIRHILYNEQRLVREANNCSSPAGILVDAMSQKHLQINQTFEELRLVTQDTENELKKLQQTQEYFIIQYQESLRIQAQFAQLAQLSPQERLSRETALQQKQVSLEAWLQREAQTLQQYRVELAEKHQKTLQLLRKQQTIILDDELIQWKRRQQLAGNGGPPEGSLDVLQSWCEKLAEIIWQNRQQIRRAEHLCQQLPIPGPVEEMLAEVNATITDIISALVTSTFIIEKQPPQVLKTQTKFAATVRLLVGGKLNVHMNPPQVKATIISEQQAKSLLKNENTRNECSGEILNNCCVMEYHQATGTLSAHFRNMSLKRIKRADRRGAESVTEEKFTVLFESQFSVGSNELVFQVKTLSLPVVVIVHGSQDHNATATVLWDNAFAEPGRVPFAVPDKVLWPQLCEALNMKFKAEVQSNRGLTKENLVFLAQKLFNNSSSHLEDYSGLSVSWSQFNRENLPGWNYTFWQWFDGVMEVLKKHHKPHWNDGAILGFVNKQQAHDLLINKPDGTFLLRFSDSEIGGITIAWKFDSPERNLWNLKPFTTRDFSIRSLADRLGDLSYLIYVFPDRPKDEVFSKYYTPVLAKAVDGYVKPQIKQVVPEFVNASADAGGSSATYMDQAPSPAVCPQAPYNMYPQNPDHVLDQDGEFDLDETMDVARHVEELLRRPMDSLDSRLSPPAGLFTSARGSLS
As to the kind of experiment: Inhibition of STAT5 in human U-937 cells assessed as decrease in P-STAT5 phosphorylation at 200 uM pretreated for 10 hrs followed by compound washout by immunoblotting analysis. The series is classed as cell-based.

Series [11] concerns U-937. As to the kind of experiment: Induction of cell cycle arrest in human U-937 cells assessed as accumulation at S phase at 100 nM measured after 24 hrs by propidium iodide staining based flow cytometric analysis (reference value: 15.35%). The series is classed as functional.
For series [12], the target named is T1, Tyrosine-protein kinase JAK1. As to the kind of experiment: Inhibition of human JAK1.
For series [13], the target named is Receptor tyrosine-protein kinase erbB-4 (Homo sapiens) (UniProt Q15303). As to the kind of experiment: Inhibition of HER4 (unknown origin) at 0.5 uM assessed as competition rate relative to control.
Series [14] has as its target Cytoplasmic tyrosine-protein kinase BMX (Homo sapiens) (UniProt P51813). Nature of the series: Inhibition of BMX (unknown origin) at 0.5 uM assessed as competition rate relative to control.
Series [15] concerns U-937. As to the kind of experiment: Induction of cell cycle arrest in human U-937 cells assessed as accumulation at S phase at 300 nM measured after 24 hrs by propidium iodide staining based flow cytometric analysis (reference value: 15.35%). The series is classed as functional.

Active and inactive are the calls of the source. No cut-off for these calls is given here.

T1 sequence (P23458 whole entry): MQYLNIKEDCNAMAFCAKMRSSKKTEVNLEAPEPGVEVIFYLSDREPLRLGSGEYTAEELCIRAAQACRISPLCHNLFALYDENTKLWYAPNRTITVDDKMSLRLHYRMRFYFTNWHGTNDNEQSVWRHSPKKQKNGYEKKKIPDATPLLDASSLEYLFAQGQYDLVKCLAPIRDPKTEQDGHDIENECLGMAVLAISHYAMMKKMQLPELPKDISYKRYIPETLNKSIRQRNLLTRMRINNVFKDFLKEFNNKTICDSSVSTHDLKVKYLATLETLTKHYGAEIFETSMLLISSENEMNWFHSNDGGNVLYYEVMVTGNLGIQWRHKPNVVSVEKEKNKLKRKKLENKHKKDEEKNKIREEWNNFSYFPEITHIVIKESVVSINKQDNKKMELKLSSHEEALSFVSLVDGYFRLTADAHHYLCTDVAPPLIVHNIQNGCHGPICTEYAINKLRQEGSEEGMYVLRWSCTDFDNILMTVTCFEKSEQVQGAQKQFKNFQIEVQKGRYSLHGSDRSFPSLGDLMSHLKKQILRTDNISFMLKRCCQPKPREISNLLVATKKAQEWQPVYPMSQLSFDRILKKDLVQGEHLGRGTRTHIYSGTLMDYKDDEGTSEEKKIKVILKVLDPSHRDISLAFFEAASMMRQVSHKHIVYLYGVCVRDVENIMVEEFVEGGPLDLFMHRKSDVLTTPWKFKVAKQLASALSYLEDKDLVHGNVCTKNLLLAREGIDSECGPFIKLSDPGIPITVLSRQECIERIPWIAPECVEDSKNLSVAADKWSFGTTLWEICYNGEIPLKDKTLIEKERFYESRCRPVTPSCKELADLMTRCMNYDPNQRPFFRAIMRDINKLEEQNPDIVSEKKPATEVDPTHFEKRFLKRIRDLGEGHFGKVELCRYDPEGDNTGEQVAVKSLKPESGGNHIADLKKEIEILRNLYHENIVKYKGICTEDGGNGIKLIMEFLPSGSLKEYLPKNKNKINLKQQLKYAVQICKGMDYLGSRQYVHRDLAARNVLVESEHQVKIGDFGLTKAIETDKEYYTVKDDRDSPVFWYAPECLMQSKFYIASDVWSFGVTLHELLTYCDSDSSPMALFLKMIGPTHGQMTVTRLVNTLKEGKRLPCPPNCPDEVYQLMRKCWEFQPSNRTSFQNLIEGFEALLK
Epidermal growth factor receptor (Homo sapiens), sequence (P00533 whole entry): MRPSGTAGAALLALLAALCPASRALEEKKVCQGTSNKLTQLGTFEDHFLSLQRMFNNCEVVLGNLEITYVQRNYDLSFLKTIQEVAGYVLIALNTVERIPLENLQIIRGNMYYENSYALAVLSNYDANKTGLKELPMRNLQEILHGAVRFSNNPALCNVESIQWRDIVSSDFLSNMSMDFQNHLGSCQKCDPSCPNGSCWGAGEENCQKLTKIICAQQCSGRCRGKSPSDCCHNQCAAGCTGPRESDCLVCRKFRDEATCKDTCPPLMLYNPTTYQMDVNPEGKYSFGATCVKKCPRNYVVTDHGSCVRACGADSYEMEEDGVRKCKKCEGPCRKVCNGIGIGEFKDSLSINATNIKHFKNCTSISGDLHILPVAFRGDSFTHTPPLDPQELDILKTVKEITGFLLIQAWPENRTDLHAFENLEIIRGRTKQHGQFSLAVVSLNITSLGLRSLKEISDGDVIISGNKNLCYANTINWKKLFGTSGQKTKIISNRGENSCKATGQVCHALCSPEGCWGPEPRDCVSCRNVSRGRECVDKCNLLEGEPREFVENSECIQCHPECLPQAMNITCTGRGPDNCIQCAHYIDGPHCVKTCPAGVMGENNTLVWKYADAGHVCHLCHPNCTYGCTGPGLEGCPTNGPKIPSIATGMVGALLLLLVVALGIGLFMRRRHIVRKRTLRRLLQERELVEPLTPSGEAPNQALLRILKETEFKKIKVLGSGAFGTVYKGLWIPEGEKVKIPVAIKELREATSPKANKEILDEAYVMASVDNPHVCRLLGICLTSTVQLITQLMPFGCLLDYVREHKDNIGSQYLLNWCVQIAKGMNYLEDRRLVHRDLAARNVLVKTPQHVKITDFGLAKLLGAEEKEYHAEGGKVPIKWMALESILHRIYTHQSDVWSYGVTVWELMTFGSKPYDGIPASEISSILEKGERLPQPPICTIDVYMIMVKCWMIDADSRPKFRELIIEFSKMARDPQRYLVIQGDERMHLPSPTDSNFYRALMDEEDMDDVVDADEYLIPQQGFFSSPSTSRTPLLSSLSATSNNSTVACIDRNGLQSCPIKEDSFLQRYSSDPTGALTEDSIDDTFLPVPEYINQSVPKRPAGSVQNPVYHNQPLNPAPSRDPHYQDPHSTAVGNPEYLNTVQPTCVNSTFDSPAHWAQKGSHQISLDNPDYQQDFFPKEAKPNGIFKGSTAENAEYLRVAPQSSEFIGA
Receptor tyrosine-protein kinase erbB-2 (Homo sapiens), sequence (P04626 whole entry): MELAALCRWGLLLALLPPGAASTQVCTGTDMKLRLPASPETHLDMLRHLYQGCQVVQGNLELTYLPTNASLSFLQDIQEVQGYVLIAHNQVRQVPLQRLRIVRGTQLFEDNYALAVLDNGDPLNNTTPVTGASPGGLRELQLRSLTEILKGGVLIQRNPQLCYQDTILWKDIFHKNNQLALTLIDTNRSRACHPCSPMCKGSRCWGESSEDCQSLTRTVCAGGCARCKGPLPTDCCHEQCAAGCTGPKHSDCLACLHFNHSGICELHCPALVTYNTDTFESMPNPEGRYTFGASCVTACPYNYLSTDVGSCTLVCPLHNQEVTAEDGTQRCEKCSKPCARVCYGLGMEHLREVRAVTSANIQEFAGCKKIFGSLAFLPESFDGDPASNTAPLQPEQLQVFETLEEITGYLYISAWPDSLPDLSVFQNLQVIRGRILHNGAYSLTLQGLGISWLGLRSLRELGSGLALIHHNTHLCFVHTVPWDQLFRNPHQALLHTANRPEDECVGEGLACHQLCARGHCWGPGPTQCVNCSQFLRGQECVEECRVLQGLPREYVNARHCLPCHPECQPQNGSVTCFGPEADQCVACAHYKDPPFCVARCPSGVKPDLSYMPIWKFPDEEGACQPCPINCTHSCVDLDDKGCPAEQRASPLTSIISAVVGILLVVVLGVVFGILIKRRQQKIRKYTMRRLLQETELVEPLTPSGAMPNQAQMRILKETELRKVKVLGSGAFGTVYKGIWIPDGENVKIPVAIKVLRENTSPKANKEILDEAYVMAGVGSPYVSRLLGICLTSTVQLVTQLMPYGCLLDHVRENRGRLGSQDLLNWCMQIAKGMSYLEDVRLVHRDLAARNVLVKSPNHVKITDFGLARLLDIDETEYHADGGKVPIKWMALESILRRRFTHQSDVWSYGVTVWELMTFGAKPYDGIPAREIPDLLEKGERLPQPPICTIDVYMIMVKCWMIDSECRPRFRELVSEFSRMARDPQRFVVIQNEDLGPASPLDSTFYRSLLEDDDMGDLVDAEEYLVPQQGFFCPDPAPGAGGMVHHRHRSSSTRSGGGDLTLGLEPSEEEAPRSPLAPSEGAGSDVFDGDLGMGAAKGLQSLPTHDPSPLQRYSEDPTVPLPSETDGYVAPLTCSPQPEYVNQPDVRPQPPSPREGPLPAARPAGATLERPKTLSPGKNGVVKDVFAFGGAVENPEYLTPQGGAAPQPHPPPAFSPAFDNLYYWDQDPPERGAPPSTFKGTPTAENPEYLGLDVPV
Receptor tyrosine-protein kinase erbB-4 (Homo sapiens), sequence (Q15303 whole entry): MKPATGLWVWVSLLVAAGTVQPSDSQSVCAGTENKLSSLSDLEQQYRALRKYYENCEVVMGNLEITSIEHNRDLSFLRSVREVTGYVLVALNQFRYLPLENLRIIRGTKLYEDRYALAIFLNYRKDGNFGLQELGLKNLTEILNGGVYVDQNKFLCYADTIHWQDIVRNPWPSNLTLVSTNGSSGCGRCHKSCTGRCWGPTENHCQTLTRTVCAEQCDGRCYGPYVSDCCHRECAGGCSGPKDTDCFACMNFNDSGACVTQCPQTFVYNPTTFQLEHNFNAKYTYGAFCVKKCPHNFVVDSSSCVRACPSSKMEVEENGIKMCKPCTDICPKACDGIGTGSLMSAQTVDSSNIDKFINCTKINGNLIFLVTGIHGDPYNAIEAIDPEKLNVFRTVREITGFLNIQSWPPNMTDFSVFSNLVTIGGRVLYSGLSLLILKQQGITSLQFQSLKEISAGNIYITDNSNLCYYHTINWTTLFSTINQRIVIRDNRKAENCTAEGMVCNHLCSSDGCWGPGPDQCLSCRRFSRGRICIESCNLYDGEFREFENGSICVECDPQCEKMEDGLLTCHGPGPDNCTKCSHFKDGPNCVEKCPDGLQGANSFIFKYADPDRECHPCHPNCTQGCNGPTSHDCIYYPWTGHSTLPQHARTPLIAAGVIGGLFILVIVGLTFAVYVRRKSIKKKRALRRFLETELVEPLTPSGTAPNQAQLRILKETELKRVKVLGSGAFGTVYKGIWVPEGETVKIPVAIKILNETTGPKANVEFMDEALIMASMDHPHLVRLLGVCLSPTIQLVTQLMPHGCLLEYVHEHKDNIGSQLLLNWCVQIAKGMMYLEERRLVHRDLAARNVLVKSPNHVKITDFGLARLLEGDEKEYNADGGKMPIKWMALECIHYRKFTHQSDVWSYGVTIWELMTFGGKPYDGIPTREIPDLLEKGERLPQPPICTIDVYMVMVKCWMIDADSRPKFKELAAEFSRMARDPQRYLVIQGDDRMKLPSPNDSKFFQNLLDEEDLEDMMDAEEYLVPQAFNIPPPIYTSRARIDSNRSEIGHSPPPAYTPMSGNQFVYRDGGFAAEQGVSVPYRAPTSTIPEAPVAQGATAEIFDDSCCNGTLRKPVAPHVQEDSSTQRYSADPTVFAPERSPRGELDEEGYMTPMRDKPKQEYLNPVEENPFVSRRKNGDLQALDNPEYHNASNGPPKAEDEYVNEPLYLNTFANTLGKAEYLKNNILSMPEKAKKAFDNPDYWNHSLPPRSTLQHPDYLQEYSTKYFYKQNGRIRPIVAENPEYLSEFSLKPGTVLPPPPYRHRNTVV
Description for BaF3: Antiproliferative activity against mouse BaF3 parent cell measured after 72 hrs by CCK-8 assay

By inhibition is commonly meant the drop in the measured response relative to a control, in per cent. By IC50 is commonly meant the concentration at which inhibition is half-maximal. Lower therefore signals inhibition by little substance. What is called Cmax is the highest concentration seen after dosing. With `C=CC(=O)Nc1cc(Nc2ncc(Cl)c(O[C@@H]3CO[C@H]4[C@@H]3OC[C@H]4OC)n2)ccc1N(C)CCN(C)C`, the inhibition in series [1] came to 84%; in series [3], 94%; in series [6], 115%; in [8], 90%; in series [13], 40%; in [14], 40%. Moreover, the Activity in the series on U-937 [2] worked out at 15.18%; with U-937 [5], 21.31%; in the series on U-937 [11], 9.85%; in the series with U-937 [15] it was 7.5%. The inhibition entry in [4] and in [10] was “Active” each time. The IC50 in series [7] is 1.2 nM; in the series with BaF3 it was 165 nM; in [12], 4730 nM. Also, the Cmax in series [9] is 238 ng/mL.
